Experiment [1] has as its system lymphocytic leukemia P388. Kind of experiment: Lymphocytic leukemia P388 test (intraperitoneal administration). The class given is in vivo, DBA/2 mice. Particulars: days 1, 5 and 9. In outline: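 DBA/2 mice, single sex, 5-6 per group, inoculated i.p. with 10^6 P388 leukemia cells. Compounds given i.p. at various doses on days 1, 5 and 9; survival followed 30 days, reporting median survival time and treated/control (T/C) survival ratio.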

The next experiment concerns melanotic melanoma B16. In words: Melanotic Melanoma B16 test. In kind it is in vivo, C57BC/6 mice. As to conditions: days 1 through 9. In outline: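 C57BC/6 mice (10 per group) were implanted i.p. with B16 melanoma homogenate, then dosed i.p. on days 1–9 at various doses.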
[2] abbreviates: Mus musculus, P388, ip, 1.5 mg./kg. i.p., efficacy ≥125%, read-out: T/C × 100.
[3] abbreviates: Mus musculus, P388, ip, 3.1 mg./kg. i.p., efficacy ≥125%, read-out: T/C × 100.
[4] abbreviates: Mus musculus, P388, ip, 6.2 mg./kg. i.p., efficacy ≥125%, read-out: T/C × 100.
The mark [5] stands for this setting: Mus musculus, P388, ip, 12.5 mg./kg. i.p., efficacy ≥125%, read-out: T/C × 100.
Where [6] appears, read: Mus musculus, P388, ip, 25 mg./kg. i.p., efficacy ≥125%, read-out: T/C × 100.
Where [7] appears, read: Mus musculus, ip, 1.5 mg./kg. i.p., efficacy ≥125%, read-out: T/C × 100.
Where [8] appears, read: Mus musculus, ip, 3 mg./kg. i.p., efficacy ≥125%, read-out: T/C × 100.
Setting [9] is: Mus musculus, ip, 6 mg./kg. i.p., efficacy ≥125%, read-out: T/C × 100.
Where [10] appears, read: 25 mg./kg. i.p., efficacy ≥125%.
The mark [11] stands for this setting: 50 mg./kg. i.p., efficacy ≥125%.
The mark [12] stands for this setting: Mus musculus, P388, ip, 50 mg./kg. i.p., efficacy ≥125%, read-out: T/C × 100.

Structures are written as SMILES.

For `O=C1C2=C(NCCNCCO)CCC(NCCNCCO)=C2C(=O)c2c(O)ccc(O)c21` [Leuco-1,4-bis[2-(2-hydroxyethylamino)ethylamino]-5,8-dihydroxyanthraquinone], the “Median Survival Time” value is 18.5 days in experiment [1] (0.04 mg./kg. i.p.); 21.5 days in experiment [1] (0.09 mg./kg. i.p.); 21.5 days in experiment [1] (0.19 mg./kg. i.p.); 22.0 days in experiment [1] (0.39 mg./kg. i.p.); 28.0 days in experiment [1] (0.78 mg./kg. i.p.); greater than 30.0 days in experiment [1] (1.5 mg./kg. i.p.). In addition, the “Median Survival Time” value stood at 26.0 days in experiment [1] (3.1 mg./kg. i.p.); 23.0 days in experiment [1] (6.2 mg./kg. i.p.); 23.5 days in experiment [1] (12.5 mg./kg. i.p.); 12.0 days in experiment [1] (25 mg./kg. i.p.); 22.0 days in the experiment with melanotic melanoma B16 (0.37 mg./kg. i.p.); 28.5 days with melanotic melanoma B16 (0.75 mg./kg. i.p.). Besides, the “Median Survival Time” value was 30.0 days in the experiment on melanotic melanoma B16 (1.5 mg./kg. i.p.), 20.5 days in the experiment with melanotic melanoma B16 (3 mg./kg. i.p.) and 9.5 days in the experiment on melanotic melanoma B16 (6 mg./kg. i.p.). Also, in experiment [1] (Mus musculus, P388, ip, 0.19 mg./kg. i.p., efficacy ≥125%, read-out: T/C × 100), the response vs control in vivo at 0.19 mg/kg was determined as 205%. For the same compound, the response vs control in vivo at 0.04 mg/kg in experiment [1] (Mus musculus, P388, ip, 0.04 mg./kg. i.p., efficacy ≥125%, read-out: T/C × 100) turned out to be 176%. Besides, in experiment [1] (Mus musculus, P388, ip, 0.09 mg./kg. i.p., efficacy ≥125%, read-out: T/C × 100), the response vs control in vivo at 0.09 mg/kg was determined as 205%. Moreover, the response vs control in vivo at 0.39 mg/kg in experiment [1] (Mus musculus, P388, ip, 0.39 mg./kg. i.p., efficacy ≥125%, read-out: T/C × 100) worked out at 209%. For the same compound, the response vs control in vivo at 0.78 mg/kg in experiment [1] (Mus musculus, P388, ip, 0.78 mg./kg. i.p., efficacy ≥125%, read-out: T/C × 100) was 267%. Also, the response vs control in vivo at 1.5 mg/kg in experiment [1] (setting [2]) was greater than 286%; in the experiment with melanotic melanoma B16 (setting [7]), 187%. Further, the response vs control in vivo at 3.1 mg/kg in experiment [1] (setting [3]) amounted to 248%. The response vs control in vivo at 6.2 mg/kg in experiment [1] (setting [4]) amounted to 219%. Moreover, the response vs control in vivo at 12.5 mg/kg in experiment [1] (setting [5]) turned out to be 224%. In addition, the response vs control in vivo at 25 mg/kg in experiment [1] (setting [6]) is 114%. The response vs control in vivo at 0.37 mg/kg with melanotic melanoma B16 (Mus musculus, ip, 0.37 mg./kg. i.p., efficacy ≥125%, read-out: T/C × 100) turned out to be 137%. In addition, the response vs control in vivo at 0.75 mg/kg with melanotic melanoma B16 (Mus musculus, ip, 0.75 mg./kg. i.p., efficacy ≥125%, read-out: T/C × 100) is 178%. Further, in the experiment with melanotic melanoma B16 (setting [8]), the response vs control in vivo at 3 mg/kg came out at 128%. In addition, the response vs control in vivo at 6 mg/kg in the experiment with melanotic melanoma B16 (setting [9]) was 59%.
As for `CC(C)NCCNC1=C2C(=O)c3c(O)ccc(O)c3C(=O)C2=C(NCCNC(C)C)CC1` [Leuco-1,4-bis[2-(2-isopropylamino)ethylamino]-5,8-dihydroxyanthraquinone], the “Median Survival Time” value in experiment [1] (12.5 mg./kg. i.p.) worked out at 15.0 days; in experiment [1] (25 mg./kg. i.p.), 17.0 days; in experiment [1] (50 mg./kg. i.p.) it was 19.0 days; in experiment [1] (100 mg./kg. i.p.), 8.0 days; with melanotic melanoma B16 (6 mg./kg. i.p.), 25.0 days; in the experiment on melanotic melanoma B16 (12 mg./kg. i.p.), 30.0 days. For the same compound, the “Median Survival Time” value is 31.0 days in the experiment on melanotic melanoma B16 (25 mg./kg. i.p.) and 6.5 days in the experiment with melanotic melanoma B16 (50 mg./kg. i.p.). For the same compound, the “T/C × 100” value in experiment [1] (12.5 mg./kg. i.p., efficacy ≥125%) is on record as 136%; in experiment [1] (setting [10]) it was 155%; in experiment [1] (setting [11]), 173%; in experiment [1] (100 mg./kg. i.p., efficacy ≥125%) it was 73%; in the experiment with melanotic melanoma B16 (6 mg./kg. i.p., efficacy ≥125%) it was 151%; in the experiment with melanotic melanoma B16 (12 mg./kg. i.p., efficacy ≥125%), 182%. Further, the “T/C × 100” value in the experiment with melanotic melanoma B16 (setting [10]) came out at 188%; in the experiment on melanotic melanoma B16 (setting [11]), 39%.
Turning to `CNCCNCCNC1=C2C(=O)c3c(O)ccc(O)c3C(=O)C2=C(NCCNCCNC)CC1` [Leuco-1,4-bis[2-(2-methylaminoethylamino)ethylamino]-5,8-dihydroxyanthraquinone], the “Median Survival Time” value is 15.0 days in experiment [1] (6.2 mg./kg. i.p.); 16.0 days in experiment [1] (12.5 mg./kg. i.p.); 21.0 days in experiment [1] (25 mg./kg. i.p.); 28.0 days in experiment [1] (50 mg./kg. i.p.); 26.0 days in experiment [1] (100 mg./kg. i.p.); 2.0 days in experiment [1] (200 mg./kg. i.p.). The “Median Survival Time” value in the experiment on melanotic melanoma B16 (6.2 mg./kg. i.p.) worked out at 28.5 days; in the experiment on melanotic melanoma B16 (12.5 mg./kg. i.p.), 39.5 days; in the experiment on melanotic melanoma B16 (25 mg./kg. i.p.), 35.0 days; with melanotic melanoma B16 (50 mg./kg. i.p.) it was 12.5 days. Also, the response vs control in vivo at 6.2 mg/kg in experiment [1] (setting [4]) turned out to be 136%; with melanotic melanoma B16 (Mus musculus, ip, 6.2 mg./kg. i.p., efficacy ≥125%, read-out: T/C × 100), 168%. In addition, the response vs control in vivo at 12.5 mg/kg in experiment [1] (setting [5]) was 145%; in the experiment with melanotic melanoma B16 (Mus musculus, ip, 12.5 mg./kg. i.p., efficacy ≥125%, read-out: T/C × 100), 232%. In addition, the response vs control in vivo at 25 mg/kg in experiment [1] (setting [6]) was determined as 191%; in the experiment on melanotic melanoma B16 (Mus musculus, ip, 25 mg./kg. i.p., efficacy ≥125%, read-out: T/C × 100), 206%. Besides, the response vs control in vivo at 50 mg/kg in experiment [1] (setting [12]) worked out at 255%; with melanotic melanoma B16 (Mus musculus, ip, 50 mg./kg. i.p., efficacy ≥125%, read-out: T/C × 100), 73%. In addition, the response vs control in vivo at 100 mg/kg in experiment [1] (Mus musculus, P388, ip, 100 mg./kg. i.p., efficacy ≥125%, read-out: T/C × 100) stood at 236%. For the same compound, the response vs control in vivo at 200 mg/kg in experiment [1] (Mus musculus, P388, ip, 200 mg./kg. i.p., efficacy ≥125%, read-out: T/C × 100) turned out to be 18%.
Take `CNCCNC1=C2C(=O)c3c(O)ccc(O)c3C(=O)C2=C(NCCNC)CC1` [Leuco-1,4-bis[2-(methylamino)ethylamino]-5,8-dihydroxyanthraquinone]: the “Median Survival Time” value in experiment [1] (1.5 mg./kg. i.p.) is 13.0 days; in experiment [1] (3.1 mg./kg. i.p.) it was 15.0 days; in experiment [1] (6.2 mg./kg. i.p.), 21.0 days; in experiment [1] (12.5 mg./kg. i.p.) it was 19.0 days; in experiment [1] (25 mg./kg. i.p.), 19.0 days; in experiment [1] (50 mg./kg. i.p.), 6.0 days. The “Median Survival Time” value is 27.5 days in the experiment with melanotic melanoma B16 (0.7 mg./kg. i.p.); 36.0 days in the experiment on melanotic melanoma B16 (1.5 mg./kg. i.p.); 31.0 days with melanotic melanoma B16 (3 mg./kg. i.p.); 32.5 days in the experiment with melanotic melanoma B16 (6 mg./kg. i.p.); 28.0 days with melanotic melanoma B16 (12 mg./kg. i.p.). Besides, the response vs control in vivo at 1.5 mg/kg in experiment [1] (setting [2]) was found to be 118%; in the experiment with melanotic melanoma B16 (setting [7]), 225%. Besides, in experiment [1] (setting [3]), the response vs control in vivo at 3.1 mg/kg was 136%. Also, the response vs control in vivo at 6.2 mg/kg in experiment [1] (setting [4]) is 191%. The response vs control in vivo at 12.5 mg/kg in experiment [1] (setting [5]) was 173%. Also, the response vs control in vivo at 25 mg/kg in experiment [1] (setting [6]) is 173%. Further, in experiment [1] (setting [12]), the response vs control in vivo at 50 mg/kg is 55%. The response vs control in vivo at 0.7 mg/kg with melanotic melanoma B16 (Mus musculus, ip, 0.7 mg./kg. i.p., efficacy ≥125%, read-out: T/C × 100) is 172%. The response vs control in vivo at 3 mg/kg with melanotic melanoma B16 (setting [8]) was 194%. Moreover, in the experiment on melanotic melanoma B16 (setting [9]), the response vs control in vivo at 6 mg/kg stood at 203%. The response vs control in vivo at 12 mg/kg in the experiment with melanotic melanoma B16 (Mus musculus, ip, 12 mg./kg. i.p., efficacy ≥125%, read-out: T/C × 100) was 175%.

The values are drawn from US4526989A, “1,4-Bis (substituted-amino)-5,8-dihydroxy-anthraquinones and leuco bases thereof” (priority 1979, dated 1985).
